In the experiment the target is T1, human A2a receptor (Homo sapiens, UniProt P29274).
T1 construct: purchased Perkin-Elmer RBHA2AM400UA; host or cells: HEK293
Briefly: A2a receptor competition binding assay (Scintillation Proximity, tritiated radioligand). Particulars: 0.5 nM tritiated ligand, SPA beads, one hour at room temperature. As to the method: Binding affinities of compounds of the invention for the human A2a receptor were determined in a competition binding assay using Scintillation Proximity technology. […] The beads were then allowed to settle to the bottom of the wells for 1 hr, after which the membrane-associated radioactivity was determined by scintillation counting in a TopCount microplate reader. Ki values were determined using the Cheng-Prusoff equation.
• HEK293 cells expressing the human, rat, dog or monkey adenosine 2a receptor (Purchased from Perkin-Elmer # RBHA2AM400UA). • The Tritiated compound was prepared in-house by MRL Radiochemistry according to published methods. • Wheatgerm agglutinin-coated yttrium silicate SPA beads (GE Healthcare #RPNQ0023). […] This is a 2.5× solution. The final concentration in the assay is 0.5 nM. Calculate the concentration by counting two 5 ul aliquots. Membrane Preparation • Use 0.25 ug of membrane/well. Dilute membranes to 9.7 ug/ml in assay buffer. Treat with 20 ug/ml adenosine deaminase (ADA) for 15 minutes at room temperature to degrade endogenous adenosine. Membrane-Bead Mixture • Use 100 ug/well wheatgerm agglutinin-coated yttrium silicate SPA beads. • Mix ADA-treated membranes and SPA beads together for 30 min prior to assay. […] Incubate for one hour at room temperature with agitation. • Include total binding (assay buffer+1% DMSO) and non-specific binding (CGS15943, 1 uM) wells. Counting • Allow the beads to settle for one hour. • Count in TopCount. Calculations • A curve fitting program (i.e., Prism, Activity Base, Chemcart) is used to determine the EC50.
The Ki value is calculated using the Cheng-Prusoff equation. Ki=EC50/(1+(radioligand concentration/Kd))

Where [1] appears, read: membranes from HEK293 cells expressing the human A2a receptor, read-out: A2a EC50.
Setting [2] is: A2a EC50, membranes from HEK293 cells expressing the human A2a receptor.

Where two headings read alike, the source gives them in different places.

T1 sequence (P29274 whole entry): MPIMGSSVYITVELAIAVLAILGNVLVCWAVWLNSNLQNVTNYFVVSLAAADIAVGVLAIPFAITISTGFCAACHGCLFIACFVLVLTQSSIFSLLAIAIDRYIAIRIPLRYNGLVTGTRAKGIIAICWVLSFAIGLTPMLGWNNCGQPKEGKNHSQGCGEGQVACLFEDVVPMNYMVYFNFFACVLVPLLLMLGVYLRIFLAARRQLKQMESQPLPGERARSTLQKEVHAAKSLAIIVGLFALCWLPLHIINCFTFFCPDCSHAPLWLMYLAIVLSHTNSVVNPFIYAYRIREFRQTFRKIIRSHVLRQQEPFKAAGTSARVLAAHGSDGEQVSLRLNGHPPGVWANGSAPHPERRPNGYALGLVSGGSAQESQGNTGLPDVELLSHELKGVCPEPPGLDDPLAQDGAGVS

Regarding `COc1cccc2c1nc(N)n1nc(CN3CCN(c4ccc(OCC(F)F)cc4)CC3C)nc21` (stereo not shown) [Ex-151], under setting [1], the EC50 was found to be 2.22 nM.
On the same count and under the same terms, the figure for `COc1cccc2c1nc(N)n1nc(CN3CCN(c4ccc(OCC5CC5)cc4)CC3C)nc21` (stereo not shown) [Ex-152] is 2.2 nM; for `COc1cccc2c1nc(N)n1nc(CC(=O)N3CCN(c4ccccn4)CC3)nc21` [Ex-153] it is 7.3 nM.
In the case of `COc1cccc2c1nc(N)n1nc(CC(=O)N3CCN(c4ccc(F)cc4)C[C@H]3C)nc21` [Ex-154], the EC50 under setting [1] is 2.6 nM.
Same read-out and setting: the figure for `C[C@@H]1CN(c2ccc(F)cc2)CCN1Cc1nc2c3cccc(C(F)(F)F)c3nc(N)n2n1` [Ex-155] is 136 nM; for `C[C@@H]1CN(c2ccc(F)cc2)CCN1Cc1nc2c3cccc(C#N)c3nc(N)n2n1` [Ex-156] it is 740 nM.
On the same count and under the same terms, the figure for `C[C@@H]1CN(c2ccc(F)cc2)CCN1Cc1nc2c3cccc(Br)c3nc(N)n2n1` [Ex-157] is 14.4 nM; for `COc1cccc2c1nc(N)n1nc(CCCN3CCN(c4ccccn4)CC3)nc21` [Ex-158] it is 7.1 nM; for `Cc1noc2cc(F)c(N3CCN(Cc4nc5c6ccccc6nc(N)n5n4)CC3)cc12` [Ex-160] it is 343 nM.
On the same count and under the same terms, the figure for `COCCOc1ccc(N2CCN(Cc3nc4c5ccccc5nc(N)n4n3)CC2)cc1` [Ex-161] is 525 nM; for `COCCOc1ccc(N2CCN(Cc3nc4c5cc(F)cc(F)c5nc(N)n4n3)CC2)cc1` [Ex-162] it is 74.2 nM.
As to `COc1cccc2c1nc(N)n1nc(CCN3CCN(c4ncc(F)cn4)CC3)nc21` [Ex-163], the EC50 under setting [1] was 7.8 nM.
As to `COc1cccc2c1nc(N)n1nc(CCN3CCN(c4ccc(F)cn4)CC3)nc21` [Ex-164], the EC50 under setting [1] was 2.5 nM.
Turning to `COc1cccc2c1nc(N)n1nc(CCN3CCN(c4ccccn4)CC3)nc21` [Ex-165], the EC50 under setting [1] was 3.3 nM.
On the same count and under the same terms, as for `COc1cccc2c1nc(N)n1nc(CCN3CCN(c4ccccc4)CC3)nc21` [Ex-166], the figure is 13.5 nM; as for `COc1cccc2c1nc(N)n1nc(CCN3CCN(c4ccc(F)cc4)C[C@H]3C)nc21` [Ex-168], 4.1 nM.
On the same count and under the same terms, as for `COc1cccc2c1nc(N)n1nc(CCN3CCN(c4ccc(F)cn4)C[C@H]3C)nc21` [Ex-169], the figure is 2.6 nM; as for `COc1cccc2c1nc(N)n1nc(CN3CCN(c4ccccn4)CC3)nc21` [Ex-170], 157 nM.
Still for that read-out and setting: the figure for `COc1cccc2c1nc(N)n1nc(CN3CCN(C(=O)OC(C)(C)C)CC3C(F)(F)F)nc21` (stereo not shown) [Ex-171] is 30.4 nM; for `COc1cccc2c1nc(N)n1nc(CN3CCN(c4ccc(C(F)(F)F)cn4)C[C@H]3C)nc21` [Ex-173] it is 22.6 nM; for `COc1cccc2c1nc(N)n1nc(CN3CCN(c4ccc(F)cc4)CC3C(F)F)nc21` (stereo not shown) [Ex-175] it is 5.6 nM.
On to `COc1cccc2c1nc(N)n1nc(CN3CCN(c4ccc(F)cc4)CC3CF)nc21` (stereo not shown) [Ex-176], for which, under setting [1], the EC50 was found to be 8.9 nM.
On the same count and under the same terms, the figure for `COc1cccc2c1nc(N)n1nc(CN3CCN(c4ccc(F)cc4)CC3C(F)(F)F)nc21` (stereo not shown) [Ex-177] is 12.7 nM; for `COc1ccc(N2CCN(Cc3nc4c5cccc(OC)c5nc(N)n4n3)CC2(C)C)cc1` [Ex-180] it is 1.1 nM; for `COc1cccc2c1nc(N)n1nc(CN3CCN(c4ccc(F)cc4)[C@@H](C)C3)nc21` [Ex-181] it is 19.9 nM.
Take `COc1cccc2c1nc(N)n1nc(CN3CCN(c4ccc(F)cn4)[C@@H](C)C3)nc21` [Ex-182]: the EC50 under setting [1] stood at 10.2 nM.
The same measure, in the same setting: the figure for `COc1cccc2c1nc(N)n1nc(CN3CCN(c4ccc(F)cc4)CC3(C)C)nc21` [Ex-183] is 5 nM; for `COc1ccc(N2CCN(Cc3nc4c5cc(F)cc(OC)c5nc(N)n4n3)CC2(C)C)cc1` [Ex-184] it is 16.4 nM; for `COc1cccc(N2CCN(Cc3nc4c5cc(F)cc(OC)c5nc(N)n4n3)CC2(C)C)c1` [Ex-186] it is 3.5 nM.
Regarding `COc1ccccc1N1CCN(Cc2nc3c4cccc(OC)c4nc(N)n3n2)CC1(C)C` [Ex-187], the EC50 under setting [1] was 5.8 nM.
Same read-out and setting: as for `CCOC(=O)N1CCN(Cc2nc3c4cccc(OC)c4nc(N)n3n2)C2(CC2)C1` [Ex-188], the figure is 12.6 nM; as for `COCCOc1ccc(N2CCN(Cc3nc4c5cccc(OC)c5nc(N)n4n3)C3(CC3)C2)cc1` [Ex-189], 3.1 nM.
The same measure, in the same setting: as for `COCCOc1cccc(N2CCN(Cc3nc4c5cccc(OC)c5nc(N)n4n3)C3(CC3)C2)c1` [Ex-190], the figure is 6.7 nM; as for `COc1cccc2c1nc(N)n1nc(CN3CCN(c4ccc(F)cc4)CC34CC4)nc21` [Ex-191], 8.2 nM.
The same measure, in the same setting: the figure for `COc1cccc2c1nc(N)n1nc(CN3CCN(CCF)CC34CC4)nc21` [Ex-192] is 153 nM.
Turning to `COCCN1CCN(Cc2nc3c4cccc(OC)c4nc(N)n3n2)C2(CC2)C1` [Ex-193], the EC50 under setting [1] was 128 nM.
The same measure, in the same setting: the figure for `COc1cccc2c1nc(N)n1nc(CN3CCN(S(=O)(=O)C4CC4)CC34CC4)nc21` [Ex-194] is 24.8 nM; for `COc1cccc2c1nc(N)n1nc(CN3CCN(c4ccc(F)cc4)C4(CC4)C3)nc21` [Ex-195] it is 41.6 nM.
Take `COc1cccc2c1nc(N)n1nc(CN3CCN(CCC(F)(F)F)CC34CC4)nc21` [Ex-196]: the EC50 under setting [1] is 95.7 nM.
On the same count and under the same terms, the figure for `COc1cccc2c1nc(N)n1nc(CN3CCN(c4ccc(C(F)(F)F)cn4)CC3(C)C)nc21` [Ex-199] is 10.8 nM.
Still for that read-out and setting: the figure for `COc1cccc2c1nc(N)n1nc(CN3CCN(C(=O)c4ccc(C(F)(F)F)cc4)CC3(C)C)nc21` [Ex-200] is 15.6 nM; for `COc1cccc2c1nc(N)n1nc(CN3[C@H](C)CN(C(=O)c4ccc(F)cc4)C[C@@H]3C)nc21` [Ex-201] it is 50.2 nM.
On to `COc1cccc2c1nc(N)n1nc(CN3CCN(C(=O)c4ccc(F)cc4)CC3(C)C)nc21` [Ex-202], for which the EC50 under setting [1] was found to be 29.1 nM.
With `COc1cccc2c1nc(N)n1nc(CN3C4CCC3C3CCC4N3C(=O)c3ccc(C(F)(F)F)cc3)nc21` [Ex-203], the EC50 under setting [2] was 8.5 nM.
Still for that read-out and setting: as for `COc1cccc2c1nc(N)n1nc(CN3C4CCC3C3CCC4N3C(=O)c3ccc(F)cc3)nc21` [Ex-204], the figure is 11.5 nM; as for `COc1cccc2c1nc(N)n1nc(CN3C4CCC3C3CCC4N3c3ccc(C(F)(F)F)cn3)nc21` [Ex-205], 4.1 nM; as for `COc1cc(F)cc2c1nc(N)n1nc(CN3C4CCC3CN(Cc3ccccc3)C4)nc21` [Ex-206], 30.9 nM.
Take `COc1cc(F)cc2c1nc(N)n1nc(CN3CC4CCC(C3)N4Cc3ccccc3)nc21` [Ex-207]: the EC50 under setting [1] is 145 nM.
In turn, `COc1cccc2c1nc(N)n1nc(CN3C4CCC3C3CCC4N3)nc21` [Ex-208] had an EC50 under setting [2] of 143 nM.
As for `COc1ccc(CN2CCN(Cc3nc4c5cccc(OC)c5nc(N)n4n3)CC2=O)cc1` [Ex-209], the EC50 under setting [1] is 9.4 nM.
The same measure, in the same setting: as for `COc1cccc2c1nc(N)n1nc(CN3CCN(Cc4ccc(C)cc4)C(=O)C3)nc21` [Ex-210], the figure is 7.7 nM.
The same measure, in the same setting: the figure for `COc1cc(F)cc2c1nc(N)n1nc(CN3CCN(Cc4ccc(F)cc4)C(=O)C3)nc21` [Ex-211] is 9.9 nM.

The values above are taken from patent US9676780B2, “Piperazine-substituted [1,2,4]triazolo[1,5-C]quinazolin-5-amine compounds with A2A antagonist properties” (MERCK SHARP & DOHME CORP., priority 2012, dated 2017).
